# According to patent US9243247B2, “Composition for promoting apoptosis or inhibiting cell growth, comprising epstein-barr virus microrna” (Catholic University Industry Academic Cooperation Foundation, priority 2011, dated 2016):
# Entries after “also recorded” stand apart in the source; their conditions may differ.
# System: AGS cell strain
# Test: Cell growth test (CCK-8 assay) after transfection of BART miRNA mimics
# Format: cell-based
# Settings: for Relative Cell Growth: relative to scrambled control (=1)
# In short: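 EBV-negative AGS gastric cells in RPMI1640 with 10% FBS, seeded 1×10^3 cells/well and transfected with synthetic mature BART miRNA mimics (10 nM; dose series 1, 3, 10, 30 nM) via G-fectin. Growth read by CCK-8 after 72 h (or over time), 2 h at 37 °C, absorbance measured.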
substance,measurement,setting,value
"BART15-3p: EBV BART miRNA mimic, double stranded RNA; sense SEQ NO: 15, antisense SEQ NO: 16 (sense GUCAGUGGUUUUGUUUCCUUGA; antisense UCAAGGAAACAAAACCACUGAC; chemistry not given here)",cell growth lower than that of a scrambled control,"3 nM, 72 hours after transfection",50%
same,cell growth,"10 nM, 72 hours after transfection",almost no cell growth
same,cell growth,"30 nM, 72 hours after transfection",almost no cell growth
same,Relative Cell Growth,"mimic 10 nM, 72 hours after transfection, n=9",0.5676
same,Relative Cell Growth,"mimic 10 nM, 72 hours after transfection, n=9, listed as miR-BART15-3p",inhibited cell growth
same,cell growth over time,"mimic 10 nM, depending on treatment time, listed as miR-BART15-3p",greatly decreased cell growth; also recorded: inhibited cell growth almost entirely
